According to patent US4060652A (priority 1976, dated 1977):

System: albino mice
Assay: Inhibition of turning from the lateral position in mice
Assay type: in vivo
Excerpt: In experiments on albino mice, the dose of Tercuronium injected into the tail vein, that inhibited the symptom of turning from the lateral position in 50 percent of mice (ED50) was 0.06 mcM/kg (18 experiments); and 50 percent of mice perished from paralysis of the respiratory muscles (LD50) following an injection of 0.09 mcM/kg of Tercuronium.

SMILES: CC[N+](CC)(CC)c1ccc(-c2ccc(-c3ccc([N+](CC)(CC)CC)cc3)cc2)cc1 [Tercuronium, p,p"-bis-triethylammonio-n-terphenyl dibenzenesulphonate]
- ED50 (Mus musculus, iv): 0.06 µmol/kg
- myoparalytic action compared with pancuronium and α-tubocurarin (mice): several times lower than that of pancuronium and several times higher than that of α-tubocurarin
